“Also recorded” adds a separate entry of the source.
Tests used:
[1] = system: gout; test: Case reports of patients with proven gout; format: in vivo, human; conditions: for adverse effects of earlier gout treatments: patient history in cases 1-4, doses as stated per case; for response of acute gouty arthritis / recurrence on follow-up: gout patients; for response of acute gouty arthritis: anakinra 100 mg daily for 2-3 days (cases 1-3); for recurrence on follow-up: one to two months after anakinra; for response of gouty arthritis to earlier treatment: cases 3 and 4, prednisone 30 mg daily tapering over 7 days, colchicine 1 mg daily
Method: Four patients with proven gout were treated with anakinra (Kineret).

[2] = system: MSU-induced neutrophil recruitment; test: MSU crystal-induced aseptic peritonitis, neutrophil recruitment (FACS); format: in vivo, mouse
Method: Aseptic peritonitis was induced in female C57BL/6 mice by injection of 500 μg monosodium urate crystals (MSU) with PBS, 200 μg anakinra (Kineret, Amgen Inc., Thousand Oaks, USA), 200 μg anti-IL-1RI monoclonal antibody (BD Pharmingen, San Jose, USA), 200 μg anti-IL-1α monoclonal antibody (Biolegend, San Diego, USA), 200 μg anti-IL-1β monoclonal antibody ((Biolegend, San Diego, USA), or combination of 200 μg anti-IL-1α monoclonal antibody and 200 μg anti-IL-1β monoclonal antibody. After 6 h, mice were killed and the peritoneal cavity was washed with 10 ml of cold PBS. The lavage fluids were analyzed for neutrophil recruitment by FACS using the neutrophil markers CD11b and Gr1 (Ly-6G). Values are±s.e.m. of total neutrophil counts with 4-5 animals per group, Unpaired Students t test was used to calculate P value. […] The lavage fluids were analyzed for neutrophil recruitment by FACS using the neutrophil markers CD11b and Gr1 (Ly-6G), Values are±s.e.m. of total neutrophil counts with 4-5 animals per group. […] The lavage fluids were analyzed for neutrophil recruitment by FACS using the neutrophil markers CD11b and Gr1 (Ly-6G). […] The lavage fluids were analysed for PMN recruitment by FACS using the neutrophil marker Ly-6G and CD11b (BD Pharmingen).

[3] = system: human monocytes; test: TNF-α and IL-6 production by human monocytes incubated with MSU or CPPD (ELISA); format: cell-based; conditions: two concentrations of IL-1Ra, FIG. 5b
Method: (§1) a, THP1 cells were stimulated with MSU, CPPD or Zymosan (Zym) for the indicated, times in the presence or absence of the caspase-1 inhibitor zYVAD-fink. Supernatants were analyzed for TNF-α (gray bars) and IL-1β (black bars) production by ELISA. b, human monocytes were incubated with MSU or CPPD in the presence of two concentrations of IL-1Ra. TNF-α and IL-6 production was monitored by ELISA.
(§2) THP1 were stimulated for 3 h with 0.5 μM of PMA the day before stimulation as described^10. This treatment increases the phagocytic properties of the cells and induces a constitutive production of proIL-1β^33. Human monocytes were purified as described before^30. All cells were stimulated in OptiMEM medium as indicated. Human mature IL-1β was detected with a specific antibody directed. against the cleaved epitope (D116) from Cell Signalling, or with an Enzyme-linked immunoabsorbent assay (ELISA) from BD bioscience. TNF and IL-6 were detected by an ELISA from ImmunoTools and caspase-1 by an ELISA from Alexis. IL-18 was detected. with an antibody from MBL (D044-3) and. Caspase-1 with an antibody from Santa Cruz Biotechnology (sc-622), The antibody against human IL-1β[…] was a gift from Roberto Solari, Glaxo. z-YVAD-fmk was purchased from Alexis Biochemicals. IL-1ra (anakinra, Kineret) was from Amgen (thousand Oaks, USA).

[4] = system: mouse peritoneal exudate cells; test: TNF production by LPS-treated mouse peritoneal exudate cells (ELISA); format: cell-based; conditions: 200 nM, 1 μg/ml LPS overnight; FIG. 8a
Method: BALB/C mice were intraperitoneally injected with a 4% solution of thioglycollate. Six days later, peritoneal exudate cells (PEC) were collected by washing the peritoneal cavity with phosphate buffer saline. Cells were distributed in wells of tissue culture 12 well plates (10^6 cells/well). Non-adherent cells were washed and adherent cells were treated. with 1 μg/ml of Ultrapure LPS (Invivogen) in the presence or the absence of 200 nM of 17-AAG (Invivogen). (a) After overnight culture, the supernatants were collected and used for determination of TNF by ELISA. (b, c) Fresh medium was added on the cells in the presence or the absence of 2 mM of ATP or 100 μg/ml MSU. After 5 hours, the supernatants were collected and IL-1β was determined by ELISA. (d) Mouse peritoneal macrophages were treated with 500 ng/ml of Ultrapure LPS (Invivogen) in the presence or the absence of 50 nM of 17-DMAG (Invivogen). […] After 4 hours, the supernatants were collected and IL-1β was determined by ELISA. […] After 6 hours, the supernatants were collected and IL-1β was determined by ELISA.
Eight to twelve week-old mice of indicated genotypes were injected i.p. with 4% thioglycollate solution, and macrophages were collected by peritoneal lavage 3-6 days later. […] Caspase-1 was analyzed using an antibody from Santa Cruz Biotechnology (se-514) and ASC using an antibody as described previously^34. […]

[5] = system: mouse peritoneal exudate cells; test: IL-1β production by mouse peritoneal macrophages (ELISA); format: cell-based
Method: (§3) BALB/C mice were intraperitoneally injected with a 4% solution of thioglycollate. Six days later, peritoneal exudate cells (PEC) were collected by washing the peritoneal cavity with phosphate buffer saline. Cells were distributed in wells of tissue culture 12 well plates (10^6 cells/well). Non-adherent cells were washed and adherent cells were treated. with 1 μg/ml of Ultrapure LPS (Invivogen) in the presence or the absence of 200 nM of 17-AAG (Invivogen). (a) After overnight culture, the supernatants were collected and used for determination of TNF by ELISA. (b, c) Fresh medium was added on the cells in the presence or the absence of 2 mM of ATP or 100 μg/ml MSU. After 5 hours, the supernatants were collected and IL-1β was determined by ELISA. (d) Mouse peritoneal macrophages were treated with 500 ng/ml of Ultrapure LPS (Invivogen) in the presence or the absence of 50 nM of 17-DMAG (Invivogen). 2 hours later, cells were stimulated with 500 μg/ml MSU. After 4 hours, the supernatants were collected and IL-1β was determined by ELISA. (e) Human blood monocytes were treated with 1 μg/ml of Ultrapure LPS (Invivogen) in the presence or the absence of graded doses of 17-DMAG (Invivogen). After overnight culture, cells were stimulated with 100 μg/ml MSU. After 6 hours, the supernatants were collected and IL-1β was determined by ELISA.
Eight to twelve week-old mice of indicated genotypes were injected i.p. with 4% thioglycollate solution, and macrophages were collected by peritoneal lavage 3-6 days later. Cells were plated at the density of 7×10^5 cells in twelve-well dishes and. non-adherent cells were removed after 3 h. Cells were cultured in RPMI complemented with 10% FCS, sodium pyruvate, penicillin/streptomycin and L-glutamin. All cells were stimulated in OptiMEM medium as described above. Caspase-1 was analyzed using an antibody from Santa Cruz Biotechnology (se-514) and ASC using an antibody as described previously^34. The antibody against mouse IL-1β[…]was a gift from Roberto Solari, Glaxo. […]

[6] = system: THP1 cells; test: TNF-α production by stimulated THP1 cells (ELISA); format: cell-based, human; conditions: FIG. 5a
Method: as §1, §2

[7] = system: THP1 cells; test: IL-1β maturation in PMA-primed THP1 cells stimulated with crystals or ATP (Western blot); format: cell-based, human
Method: a-c, THP1 cells were stimulated for 6 h with the indicated amounts/ml of MSU crystals (a), CPPD (b) or with 50 μg/ml of pure LPS, MSU, allopurinol crystals, CPPD crystals, diamond crystals, aluminum particles, zymosan, crude preparations of LPS, or 5 mM of extracellular ATP as indicated (c). Supernatants (SN) were analyzed for the presence of mature IL-1β, IL-18 or caspase-1, and cell extracts (Cell) for the presence of proIL-1β and proIL-18. d, human monocytes were stimulated with 50 μg/ml of the indicated crystals for 6 h and analyzed by Western blot for IL-1β activation or by ELISA for released. caspase-1 and IL-1β.
THP1 cells were pre-treated with the P2X antagonist pyridoxal-phosphate-6-azophenyl-2′,4′-disulfonic acid (PPADS, Alexis) for 30 min and subsequently stimulated for 6 h with MSU crystals (50 μg/ml). Supernatants (SN) were analyzed for the presence of mature IL-1β and cell extracts (Cell) for the presence of proIL-1β.
THP1 cells were stimulated with MSU, CPPD or ATP in the presence or absence of colchicine (colch). Maturation of IL-1β was analyzed by Western Blot.
as §2

[8] = oral; cited from earlier work
[9] = system: MSU-induced inflammation; conditions: intravenous pretreatment; cited from earlier work
[10] = system: human blood monocytes; test: IL-1β production by MSU-stimulated human blood monocytes (ELISA); format: cell-based; conditions: graded doses, LPS overnight, 100 μg/ml MSU 6 h; FIG. 8e
Method: as §3

Compound: O=C(O)Cc1ccccc1Nc1c(Cl)cccc1Cl [diclofenac]
- adverse effects of earlier gout treatments [1]: gastrointestinal side effects including one episode of G-I hemorrhage

Compound: Oc1ncnc2[nH]ncc12 [allopurinol]
- adverse effects of earlier gout treatments [1]: severe cutaneous reaction; also recorded: acute gout developed after the first dose; also recorded: induced flare-ups of arthritis

Compound: anakinra: IL-1 receptor type I (IL-1RI) antagonist, IL-1Ra also known as anakinra, marketed under the name Kineret
- response of acute gouty arthritis [1]: complete resolution of arthritis by the second day; also recorded: responded rapidly
- response of acute gouty arthritis ([1]; listed as Anakinra): rapid reduction in joint pain over 48 h
- response of acute gouty arthritis ([1]; listed as Anankinra): rapid resolution of signs and symptoms of arthritis
- recurrence on follow-up [1]: no recurrence of arthritis; also recorded: asymptomatic two months later
- recurrence on follow-up ([1]; listed as Anakinra): No acute flares
- recurrence on follow-up ([1]; listed as Anankinra): no further flare-ups
- neutrophil influx ([2]; female C57BL/6 mice, 500 μg MSU, 200 μg of each agent, 6 h, FIG. 12): almost entirely prevented
- IL-6 production by human monocytes [3]: significantly affected
- TNF-α production by human monocytes [3]: significantly affected

Compound: C=CCNC1=C2C[C@@H](C)C[C@H](OC)[C@H](O)[C@@H](C)/C=C(\C)[C@H](OC(N)=O)[C@@H](OC)/C=C\C=C(/C)C(=O)NC(=CC1=O)C2=O [17-AAG, 17-(Allylamino)-17-demethoxygeldanamycin]
- reduction of TNFα production [4]: less than 50%
- production of IL-1β by mouse macrophages stimulated by MSU crystals ([5]; 200 nM, LPS overnight, 100 μg/ml MSU 5 h, FIG. 8c): almost completely inhibited
- production of IL-1β by mouse macrophages stimulated by ATP ([5]; 200 nM, LPS overnight, 2 mM ATP 5 h, FIG. 8b): almost completely inhibited

Compound: COC(=O)C[C@H](NC(=O)[C@H](C)NC(=O)[C@@H](NC(=O)[C@H](Cc1ccc(O)cc1)NC(=O)OCc1ccccc1)C(C)C)C(=O)CF [zYVAD-fmk]
- TNF-α production by the TLR2 agonist Zymosan [6]: without affecting
- reduction of TNF-α production induced by MSU and CPPD [6]: more than 50%
- MSU-induced IL-1β activation ([7]; MSU crystals, 6 h, FIG. 1a): completely blocked

Compound: COc1cc2c(c(OC)c1OC)-c1ccc(OC)c(=O)cc1[C@@H](NC(C)=O)CC2 [colchicine]
- side effects limiting use [8]: nausea and abdominal pain
- response of gouty arthritis to earlier treatment [1]: ineffective
- adverse effects of earlier gout treatments [1]: rectal bleeding; also recorded: diarrhea
- adverse effects of earlier gout treatments ([1]; listed as Colchicine): intolerable diarrhea; also recorded: rapid onset of diarrhea
- inflammation after intraarticular MSU injections [9]: greatly reduces inflammation
- IL-1β activation by extracellular ATP ([7]; FIG. 6): did not affect
- crystal-induced processing of IL-1β ([7]; MSU or CPPD, pretreatment, FIG. 6): completely blocked

Compound: CCc1oc2ccccc2c1C(=O)c1cc(Br)c(O)c(Br)c1 [benzbromazone]
- adverse effects of earlier gout treatments [1]: renal stones

Compound: CO[C@H]1/C=C\C=C(/C)C(=O)NC2=CC(=O)C(NCCN(C)C)=C(C[C@@H](C)C[C@H](OC)[C@H](O)[C@@H](C)/C=C(\C)[C@@H]1OC(N)=O)C2=O [17-DMAG, 17-(Dimethylaminoethylamino)-17-demethoxygeldanamycin]
- production of IL-1β by human blood monocytes stimulated by MSU crystals [10]: inhibited
- neutrophil influx in response to MSU ([2]; female BALB/C mice, 25 mg/kg intraperitoneally 1 h before 500 μg MSU, FIG. 14): reduced
- production of IL-1β by mouse macrophages stimulated by MSU crystals ([5]; 50 nM, LPS 2 h, 500 μg/ml MSU 4 h, FIG. 8d): inhibited

Compound: C[C@]12C=CC(=O)C=C1CC[C@@H]1[C@@H]2C(=O)C[C@@]2(C)[C@H]1CC[C@]2(O)C(=O)CO [prednisone]
- response of gouty arthritis to earlier treatment [1]: the arthritis remained active
